In article PMC3725620 (Breast cancer research and treatment, 2011):

Legend:
[1] = target: prostaglandin E receptor EP4 (Homo sapiens, UniProt P35408); experiment: inhibition of 3H-PGE2 radioligand binding; format: cell-based
[2] = target: prostaglandin E receptor EP2 (Homo sapiens, UniProt P43116); experiment: inhibition of 3H-PGE2 radioligand binding; format: cell-based
Sequence of prostaglandin E receptor EP2 (P43116 whole entry): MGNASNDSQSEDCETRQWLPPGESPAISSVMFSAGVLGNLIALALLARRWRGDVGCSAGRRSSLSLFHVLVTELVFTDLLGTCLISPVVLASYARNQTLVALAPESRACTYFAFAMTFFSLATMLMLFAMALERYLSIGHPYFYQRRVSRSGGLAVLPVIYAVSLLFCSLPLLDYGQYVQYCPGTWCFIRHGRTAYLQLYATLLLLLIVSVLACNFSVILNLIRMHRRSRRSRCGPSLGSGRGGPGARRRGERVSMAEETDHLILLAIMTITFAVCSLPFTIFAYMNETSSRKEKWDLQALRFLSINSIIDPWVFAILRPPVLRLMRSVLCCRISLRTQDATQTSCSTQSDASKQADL

Sequence of prostaglandin E receptor EP4 (P35408 whole entry): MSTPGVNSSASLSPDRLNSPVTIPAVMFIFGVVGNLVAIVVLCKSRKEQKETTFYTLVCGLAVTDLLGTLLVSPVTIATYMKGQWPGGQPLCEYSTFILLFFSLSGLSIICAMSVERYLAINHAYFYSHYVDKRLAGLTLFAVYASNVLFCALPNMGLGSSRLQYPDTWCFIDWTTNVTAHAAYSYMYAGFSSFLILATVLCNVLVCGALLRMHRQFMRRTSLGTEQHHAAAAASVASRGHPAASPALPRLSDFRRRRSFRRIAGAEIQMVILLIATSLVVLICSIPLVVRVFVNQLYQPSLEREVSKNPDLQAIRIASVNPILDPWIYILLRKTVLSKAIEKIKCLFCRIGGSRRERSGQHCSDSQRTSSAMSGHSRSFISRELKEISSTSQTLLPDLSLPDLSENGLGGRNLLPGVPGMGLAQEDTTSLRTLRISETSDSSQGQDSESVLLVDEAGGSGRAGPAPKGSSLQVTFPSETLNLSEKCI

**Q.** How did the IC50 [1] turn out when `CO[C@@H]1[C@@H](O)[C@H](O[C@@H]2[C@@H](O)[C@H](O[C@H]3[C@H](O)[C@@H](O[C@@H]4OC[C@@H](O)[C@H](O)[C@H]4O)[C@H](O[C@H]4[C@H](OC5CC[C@]6(C)[C@H]7CCC89C(=O)O[C@@](C)(CCCC(C)C)C8[C@@H](OC(C)=O)C[C@@]9(C)C7=CC[C@H]6C5(C)C)OC[C@@H](OS(=O)(=O)O)[C@@H]4O)O[C@@H]3C)OC[C@H]2O)O[C@H](CO)[C@H]1O` (some centres unmarked) [FA, Frondoside A] was run?
**A.** ~3.7 µM

**Q.** What about the IC50 [2] of the same molecule?
**A.** 16.5 µM
